Reference: patent publication US6525001B1, “Substituted pyrimidine and pyridine herbicides” (Mid-American Commercialization Corporation, priority 1997, dated 2003)

Key:
Type in all cases: in vivo
[1] = test system: blackgrass (Alopecurus myosuroides); assay: Test B pre-/postemergence; parameters: key: 0 is no effect; 10 is complete control
Summary of the method: (§1)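 Response scores run from 0, meaning no effect, to 10, meaning complete control, assigned by eye relative to controls twelve to sixteen days after spraying. Treatment was both preemergence on planted seed and postemergence on plants at the 1- to 4-leaf stage.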

[2] = test system: broadleaf signalgrass (Brachiaria decumbens); assay: Test B pre-/postemergence; parameters: key: 0 is no effect; 10 is complete control
Summary of the method: as §1

[3] = test system: smallflower flatsedge (Cyperus difformis); assay: Test B flood test; parameters: key: 0 is no effect; 10 is complete control; conditions: for Plant response rating, S. Flatsedge: Postemergence (flood test species)
Summary of the method: (§2)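 Each value is a visual injury score relative to controls, with 10 meaning complete control and 0 no effect. Evaluation took place twelve to sixteen days after the 2-leaf-stage plants were treated and kept in the greenhouse.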

[4] = test system: bamyardgrass (Echinochloa crus-galli); assay: Test B flood test; parameters: key: 0 is no effect; 10 is complete control; conditions: for Plant response rating, Barnyardgrass: Postemergence (flood test species)
Summary of the method: as §2

rice (Oryza sativa) = assay: Test B flood test; parameters: key: 0 is no effect; 10 is complete control; conditions: for Plant response rating, Rice: Postemergence (flood test species)
Summary of the method: as §2

[5] = test system: duck salad (Heteranthera limosa); assay: Test B flood test; parameters: key: 0 is no effect; 10 is complete control; conditions: for Plant response rating, Ducksalad: Postemergence (flood test species)
Summary of the method: as §2

[6] = test system: barnyardgrass (Echinochloa crus-galli); assay: Test A pre-/postemergence; parameters: key: 0 is no effect; 10 is complete control; conditions: 0 to 10 scale
[7] = test system: crabgrass (Digitaria spp.); assay: Test A pre-/postemergence; parameters: key: 0 is no effect; 10 is complete control; conditions: 0 to 10 scale
[8] = test system: morningglory (Ipomoea spp.); assay: Test A pre-/postemergence; parameters: key: 0 is no effect; 10 is complete control; conditions: 0 to 10 scale
[9] = test system: velvetleaf (Abutilon theophrasti); assay: Test A pre-/postemergence; parameters: key: 0 is no effect; 10 is complete control; conditions: 0 to 10 scale
[10] = test system: cotton (Gossypium hirsutum); assay: Test C; parameters: key: 0 was no effect; 100 was complete control; conditions: PREEMERGENCE
[11] = test system: purple nutsedge (Cyperus rotundus); assay: Test C; parameters: key: 0 was no effect; 100 was complete control; conditions: PREEMERGENCE
[12] = test system: cocklebur (Xanthium strumarium); assay: Test C; parameters: key: 0 was no effect; 100 was complete control; conditions: PREEMERGENCE
[13] = test system: common ragweed (Ambrosia elatior); assay: Test C; parameters: key: 0 was no effect; 100 was complete control; conditions: PREEMERGENCE
[14] = test system: field bindweed (Convolvulus arvensis); assay: Test C; conditions: PREEMERGENCE
[15] = Rate 62 g/ha, Postemergence (flood test)
[16] = Rate 125 g/ha, Postemergence section (flood test species)
[17] = PRE SOIL DRENCH, Rate 2000 g/ha
[18] = postemergence SPRAYED TO RUNOFF, Rate 1000 g/ha

Cc1cnc(-c2ccc(C(F)(F)F)cc2)nc1C(=O)c1ccc(C(F)(F)F)cc1 [Compound 74]
8: Plant response rating, Crabgrass [7, 18]
2: Plant response rating, B. signalgrass ([2]; Rate 500 g/ha, Postemergence)
10: Plant response rating, Morningglory [8, 18]
7: Plant response rating, Crabgrass [7, 17]
4: Plant response rating, Velvetleaf [9, 17]
1: Plant response rating, Blackgrass ([1]; Rate 500 g/ha, Postemergence) | B. signalgrass plant response rating ([2]; Rate 62 g/ha, Postemergence) | B. signalgrass plant response rating ([2]; Rate 125 g/ha, Postemergence) | Plant response rating, B. signalgrass ([2]; Rate 250 g/ha, Postemergence) | Plant response rating, Barnyardgrass [6, 17] | Plant response rating, Morningglory [8, 17]
5: Plant response rating, Barnyardgrass [6, 18] | Plant response rating, Velvetleaf [9, 18]
0: Plant response rating, Blackgrass ([1]; Preemergence, Rate 62 g/ha, scale of 0 to 10) | Blackgrass plant response rating ([1]; Rate 62 g/ha, Postemergence) | Blackgrass plant response rating ([1]; Rate 125 g/ha, Postemergence) | Plant response rating, Blackgrass ([1]; Rate 125 g/ha, Preemergence) | Plant response rating, Blackgrass ([1]; Rate 250 g/ha, Postemergence) | Plant response rating, Blackgrass ([1]; Rate 250 g/ha, Preemergence) | Plant response rating, Blackgrass ([1]; Rate 500 g/ha, Preemergence) | B. signalgrass plant response rating ([2]; Rate 62 g/ha, Preemergence) | Plant response rating, B. signalgrass ([2]; Rate 125 g/ha, Preemergence) | Plant response rating, B. signalgrass ([2]; Rate 250 g/ha, Preemergence) | Plant response rating, B. signalgrass ([2]; Rate 500 g/ha, Preemergence) | S. Flatsedge plant response rating [3, 15] | S. Flatsedge plant response rating [3, 16] | Plant response rating, S. Flatsedge ([3]; Rate 250 g/ha) | Plant response rating, S. Flatsedge ([3]; Rate 500 g/ha) | Barnyardgrass plant response rating [4, 15] | Barnyardgrass plant response rating [4, 16] | Plant response rating, Barnyardgrass ([4]; Rate 250 g/ha) | Plant response rating, Barnyardgrass ([4]; Rate 500 g/ha) | Rice plant response rating (rice (Oryza sativa); [15]) | Rice plant response rating (rice (Oryza sativa); [16]) | Plant response rating, Rice (rice (Oryza sativa); Rate 250 g/ha) | Plant response rating, Rice (rice (Oryza sativa); Rate 500 g/ha) | Ducksalad plant response rating [5, 15] | Ducksalad plant response rating [5, 16] | Plant response rating, Ducksalad ([5]; Rate 250 g/ha) | Plant response rating, Ducksalad ([5]; Rate 500 g/ha)

Cc1cnc(-c2ccc(C(F)(F)F)cc2)nc1Cc1cccc(C(F)(F)F)c1 [Example 1, 5-methyl-2-[4-(trifluoromethyl)phenyl]-4-[[3-(trifluoromethyl)phenyl]methyl]pyrimidine]
6: Plant response rating, B. signalgrass ([2]; Rate 125 g/ha, Postemergence)
9: Blackgrass plant response rating ([1]; Rate 125 g/ha, Preemergence) | Plant response rating, Blackgrass ([1]; Rate 250 g/ha, Postemergence) | Plant response rating, Blackgrass ([1]; Rate 500 g/ha, Postemergence) | B. signalgrass plant response rating ([2]; Rate 62 g/ha, Preemergence) | B. signalgrass plant response rating ([2]; Rate 125 g/ha, Preemergence) | Plant response rating, B. signalgrass ([2]; Rate 250 g/ha, Preemergence) | Plant response rating, B. signalgrass ([2]; Rate 500 g/ha, Postemergence) | Plant response rating, B. signalgrass ([2]; Rate 500 g/ha, Preemergence) | Plant response rating, Barnyardgrass [6, 18] | Plant response rating, Crabgrass [7, 18] | Plant response rating, Morningglory [8, 18] | Plant response rating, Velvetleaf [9, 17] | Plant response rating, Velvetleaf [9, 18]
80: Plant response rating, Common ragweed ([13]; Rate 35 g/ha)
3: Plant response rating, B. signalgrass ([2]; Rate 62 g/ha, Postemergence)
0: Plant response rating, Purple nutsedge ([11]; Rate 35 g/ha) | Plant response rating, Purple nutsedge ([11]; Rate 70 g/ha) | Plant response rating, Purple nutsedge ([11]; Rate 140 g/ha) | Plant response rating, Cocklebur ([12]; Rate 35 g/ha) | Plant response rating, Cocklebur ([12]; Rate 70 g/ha) | Plant response rating, Cocklebur ([12]; Rate 140 g/ha)
30: Plant response rating, Cotton ([10]; Rate 35 g/ha)
50: Plant response rating, Field bindweed ([14]; Rate 70 g/ha) | Plant response rating, Field bindweed ([14]; Rate 140 g/ha)
8: Blackgrass plant response rating ([1]; Rate 62 g/ha, Preemergence) | Plant response rating, B. signalgrass ([2]; Rate 250 g/ha, Postemergence) | Plant response rating, Morningglory [8, 17]
65: Plant response rating, Field bindweed ([14]; Rate 35 g/ha)
10: Plant response rating, Blackgrass ([1]; Rate 250 g/ha, Preemergence) | Plant response rating, Blackgrass ([1]; Rate 500 g/ha, Preemergence) | Plant response rating, Barnyardgrass [6, 17] | Plant response rating, Crabgrass [7, 17]
100: Plant response rating, Cotton ([10]; Rate 140 g/ha) | Plant response rating, Common ragweed ([13]; Rate 70 g/ha) | Plant response rating, Common ragweed ([13]; Rate 140 g/ha)
7: Plant response rating, Blackgrass ([1]; Rate 62 g/ha, Postemergence) | Plant response rating, Blackgrass ([1]; Rate 125 g/ha, Postemergence)
60: Plant response rating, Cotton ([10]; Rate 70 g/ha)
